Experimental data taken from patent US8592458B2 (priority 2005, dated 2013).
Counter-ions that a name gives are not always drawn. Like-named read-outs stand apart in the source and are kept apart here.

Columns and labels:
[1] = target: α7 nAChR (Rattus norvegicus, UniProt Q05941); type: binding; details: for RELATIVE A7/A4B2 SELECTIVITY / Ki: rat brain membranes; for RELATIVE A7/A4B2 SELECTIVITY: Ki alpha4beta2 / Ki alpha7, divided by the alpha7 selectivity of DMXBA (1.95), DMXBA set to 1.00; for Ki α4β2/α7 Ratio: alpha7 selectivity, not normalized with respect to DMXBA selectivity; for Ki: [125I]alpha-bungarotoxin, n = 2
Chain of α7 nAChR (Q05941 23-502): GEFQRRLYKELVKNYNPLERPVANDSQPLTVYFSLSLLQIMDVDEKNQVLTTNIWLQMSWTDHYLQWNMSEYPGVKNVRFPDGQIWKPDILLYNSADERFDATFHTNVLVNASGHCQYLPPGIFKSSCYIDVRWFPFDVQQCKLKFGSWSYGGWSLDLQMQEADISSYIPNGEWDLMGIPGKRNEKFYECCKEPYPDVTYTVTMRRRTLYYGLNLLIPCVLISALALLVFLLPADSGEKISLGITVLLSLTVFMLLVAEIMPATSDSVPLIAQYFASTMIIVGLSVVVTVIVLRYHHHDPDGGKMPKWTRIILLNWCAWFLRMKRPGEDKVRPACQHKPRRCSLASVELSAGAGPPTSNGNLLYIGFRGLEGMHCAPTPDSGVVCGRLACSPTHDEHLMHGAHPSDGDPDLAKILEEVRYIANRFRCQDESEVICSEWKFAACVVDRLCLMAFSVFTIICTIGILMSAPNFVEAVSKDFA

[2] = Spectrophotometric pKa determination of the imine nitrogen; type: physicochemical; details: for % ionized: percent ionization at pH 7.4
Method: Thirteen different pH values in the titration region were evaluated (pH: 4, 5, 6, 7, 7.2, 7.5, 7.8, 8, 8.2, 8.5, 8.8, 9, 10). A specific concentration of 3-benzylidene-3-arylidene-anabaseine compound, 1.3×10^−3 M, was added to the potassium phosphate buffers at varied pH values. Each tube was then vortexed and immediately read in a Beckman spectrophotometer. The same glass cuvette was used with every sample. The glass cuvette was thoroughly rinsed with distilled deionized water between different pH samples. The wavelength scan was set to a range of 250-600 nm. The pH with the highest change in absorbance was determined. The wavelength at the highest change in absorbance and the absorbance values for all of the different pH samples at this wavelength were entered into the Enzfitter software (Elsevier-Biosoft, Cambridge, UK) in order to estimate each pKa value.

[3] = target: α4β2 nAChR (Rattus norvegicus, UniProt P09483+P12390); assay: Radioligand binding, displacement of [3H]cytisine from rat brain membranes; details: n = 2
Chain of α4β2 nAChR (P09483 31-630): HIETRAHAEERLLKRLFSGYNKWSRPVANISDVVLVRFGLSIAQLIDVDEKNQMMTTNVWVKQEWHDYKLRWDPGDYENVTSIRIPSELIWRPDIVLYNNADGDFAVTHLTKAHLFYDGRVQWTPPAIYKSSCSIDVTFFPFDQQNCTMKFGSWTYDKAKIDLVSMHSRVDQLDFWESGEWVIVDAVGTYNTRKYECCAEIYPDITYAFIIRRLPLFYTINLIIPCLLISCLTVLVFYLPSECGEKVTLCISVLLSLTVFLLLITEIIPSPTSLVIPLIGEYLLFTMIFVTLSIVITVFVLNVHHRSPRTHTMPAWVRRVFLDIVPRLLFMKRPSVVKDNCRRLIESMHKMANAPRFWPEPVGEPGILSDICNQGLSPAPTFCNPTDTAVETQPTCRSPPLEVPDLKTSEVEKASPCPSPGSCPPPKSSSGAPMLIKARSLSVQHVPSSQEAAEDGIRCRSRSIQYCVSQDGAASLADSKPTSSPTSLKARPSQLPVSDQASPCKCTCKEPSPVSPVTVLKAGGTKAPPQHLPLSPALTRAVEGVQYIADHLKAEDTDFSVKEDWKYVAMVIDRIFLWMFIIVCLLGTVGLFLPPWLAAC
Chain of α4β2 nAChR (P12390 25-500): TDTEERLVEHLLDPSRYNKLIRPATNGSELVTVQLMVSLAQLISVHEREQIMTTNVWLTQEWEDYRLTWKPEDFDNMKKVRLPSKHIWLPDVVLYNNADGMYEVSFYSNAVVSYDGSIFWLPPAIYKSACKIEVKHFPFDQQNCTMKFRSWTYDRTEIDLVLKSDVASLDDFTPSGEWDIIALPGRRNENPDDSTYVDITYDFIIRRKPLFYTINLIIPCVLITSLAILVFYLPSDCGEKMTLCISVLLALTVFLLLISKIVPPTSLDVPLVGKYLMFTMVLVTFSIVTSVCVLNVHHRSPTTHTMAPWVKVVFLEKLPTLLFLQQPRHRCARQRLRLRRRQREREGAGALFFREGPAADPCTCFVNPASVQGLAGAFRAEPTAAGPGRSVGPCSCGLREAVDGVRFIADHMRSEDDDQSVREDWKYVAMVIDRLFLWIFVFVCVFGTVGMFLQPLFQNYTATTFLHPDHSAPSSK
Method: Assays were performed using the experimental compound to compete for its nAChR binding site with a radioligand that specifically labels either the α4β2 or the α7 nAChR in homogenized Sprague-Dawley rat brain membrane. These assays were used to determine the IC50 of the experimental compounds, which is then used to determine the KI with the Cheng-Prusoff equation.
The 3-arylidene-anabaseine compound was suspended in 50 mM Tris binding saline, with 2 mg/ml BSA, if it was a salt, or in methanol if it was a free base, and dilutions were made in 2 mg/ml BSA Tris binding saline. The final solutions were incubated at 37° C. for approximately 2.5 hours. Once the reaction was assumed to be at equilibrium, it was stopped by harvesting the tissue onto GF/C filters, which were soaked for 45 minutes in a 0.5% polyethylenamine solution to reduce non-specific binding of the radioligand to the filter, using a Brandel tissue harvester. The filters were then placed in gamma tubes and counted on a Beckman counter for 5 minutes per sample. The counts per minute were then assessed, the results were entered, and the IC50s and KIs were determined using the software program Graphpad Prism®. The [^3H]cytisine experiments were performed in a similar manner. First the addition of all of the components: 1 nM [^3H]cytisine, 3-benzylidene-3-arylidene-anabaseine compound (5 nM-50 μM), 0.2 mg rat brain homogenate, and 2 mg/ml BSA Tris solution at a pH of 7.4 to bring the final volume up to 0.5 ml in each tube.
To assess non-specific binding, 1 mM nicotine was added in place of the 3-arylidene-anabaseine. To assess total binding, only the radioligand, tissue, and BSA Tris solution were added. The incubation time and the temperature were altered in this protocol to produce the greatest difference between total and non-specific binding and to maximize the affinity of the radioligand for the receptor, respectively. The incubation time for [^3H]cytisine was 4 hours at 4° C. […] The counts per minute were entered into GraphPad Prism® where the IC50s and the KIs were assessed.
Rat brain membrane was obtained frozen from Pel-Freez Biologicals (Rogers, Ariz.). The protein concentration of the rat brain homogenate was assessed using the bicinchoninic acid (BCA) protein assay kit from Pierce (Rockford, Ill.).
Displacement of ^125I-labelled alpha-bungarotoxin (BTX) measured binding to alpha7 receptors; displacement of [^3H]-labelled cytisine measured binding to alpha4beta2 receptors. […] Nonspecific binding of each radioligand was measured in the presence of 1.0 mM nicotine. […] Bound [3H] […] was measured in a liquid scintillation counter, whereas [125]BTX was measured with use of a Biogamma counter (both from Beckman Coulter).

[4] = Octanol/water partition coefficient by RP-HPLC; type: physicochemical; details: 1-octanol/sodium phosphate buffer; 1-octanol / 10 mM sodium phosphate buffer pH 7.4 with 150 mM NaCl, corrected for ionization
Method: P is the ratio of the concentration of an un-ionized form of a compound in octanol relative to the unionized concentration of the compound in an aqueous phase containing 150 mM NaCl (to approximate physiological conditions), after the two phases have equilibrated. Log P values were determined for each test compound by RP-HPLC analysis. Approximately 1 mg of each compound was weighed out and placed in equal volumes, 3 ml 10 mM sodium phosphate buffer, pH 7.4, which contained 150 mM NaCl, and 1-octanol. Previously, equal volumes of the sodium phosphate buffer and 1-octanol were added to a separatory funnel and allowed to equilibrate overnight. The equilibrated sodium phosphate buffer was checked prior to its addition to the compound for a pH of 7.4. Once these phases were added to the weighed compound, the solutions were allowed to equilibrate overnight on a gentle shaker at room temperature. The samples were centrifuged at […] for 5 minutes and octanol phase carefully removed with a Pasteur pipette. The pH of the water phase was remeasured in order to calculate the corrected Log P value.
Since large concentrations of octanol cannot be directly injected into the HPLC without affecting the elution of the compound being measured, the compound was extracted from the separated octanol phase with an acidic 150 mM NaCl solution adjusted to a pH of approximately 2.6 (with 100 mM glacial acetic acid). The acidic saline solution was allowed to gently mix with the octanol phase for 20 minutes on a shaker at room temperature. The samples containing the octanol and acidic saline phases were then centrifuged at 1,000×g for 5 minutes and the upper octanol phase was carefully removed with a Pasteur pipette. This back extraction step was repeated at least two and sometimes three times. All three or four back extracted solutions for a particular compound were then combined. Both the original aqueous and the back extracted octanol phases were then diluted with 50 mM ammonium acetate buffer, pH 4.5. The diluted samples were then transferred by pipette to autosampler tubes and subsequently […] of each diluted sample was injected into the HPLC. The area under the curve (AUC) of an absorbance peak was determined for samples from both (octanol and aqueous) of the original phases. Taking into account the dilutions of each sample phase during its preparation for HPLC determination, Log P (taking into consideration the percent ionization at pH 7.4) was then calculated.

[5] = imine nitrogen, room temperature, 50 mM potassium phosphate buffer, 150 mM NaCl

With 4′-Methyl-DMXBA the “RELATIVE A7/A4B2 SELECTIVITY” value [1] was 14.8.

For `COc1ccc2cc(/C=C3\CCCN=C3c3cccnc3)ccc2c1` (as salt: hydrochloride) [3-[(6-Methoxy-naphth-2-yl)-methylene]-anabaseine dihydrochloride], the melting point was 223 to 226 °C.

For `CC1CCN=C(c2cccnc2)C1` (racemic) [(S,R)-4-Methyl-Anabaseine, 4-Methyl-anabaseine], the “RELATIVE A7/A4B2 SELECTIVITY” value [1] was 0.69.

In the case of `COc1ccc(C=C2C(c3cccnc3)=NCCC2C)c(OC)c1` (racemic) [(S,R)-4-Methyl-DMXBA, 3-(2,4-dimethoxybenzylidene)-(4-methyl)-3,4,5,6-tetrahydro-2,3′-bipyridine], the “RELATIVE A7/A4B2 SELECTIVITY” value [1] is reported as 4.10.

For `CC1CCC(c2cccnc2)=NC1` (racemic) [(S,R)-5-Methyl-Anabaseine, 5-Methyl-Anabaseine], the “RELATIVE A7/A4B2 SELECTIVITY” value [1] was 0.38.

With `COc1ccc(C=C2CC(C)CN=C2c2cccnc2)c(OC)c1` (racemic) [(S,R)-5-Methyl-DMXBA, 3-(2,4-dimethoxybenzylidene)-(5-methyl)-3,4,5,6-tetrahydro-2,3′-bipyridine] the “RELATIVE A7/A4B2 SELECTIVITY” value [1] was 1.31.

With `CC1CCCC(c2cccnc2)=N1` (racemic) [(S,R)-6-Methyl-Anabaseine, 6-methyl-anabaseine] the “RELATIVE A7/A4B2 SELECTIVITY” value [1] was 1.19.

With `COc1ccc(C=C2CCC(C)N=C2c2cccnc2)c(OC)c1` (racemic) [(S,R)-6-Methyl-DMXBA, 3-(2,4-dimethoxybenzylidene)-(6-methyl)-3,4,5,6-tetrahydro-2,3′-bipyridine] the “RELATIVE A7/A4B2 SELECTIVITY” value [1] was 3.67.

For `COc1cc(O[C@@H]2O[C@H](C(=O)O)[C@@H](O)[C@H](O)[C@H]2O)ccc1C=C1CCCN=C1c1cccnc1` [3-(4-Beta-Glucuronidyl-2-methoxyB)A, 3-(4-Glucuronido-2-methoxybenzylidene)-anabaseine], the “RELATIVE A7/A4B2 SELECTIVITY” value [1] was 9.40.

With `C(=C1/CCCN=C1c1cccnc1)/c1ccc2c(c1)OCCO2` [3-[3,4-(Ethylenedioxy)benzylidene]-anabaseine] the pKa [2, 5] was 7.56 ± 0.03, the “% ionized” value [2] was 59.11% and the “Ki α4β2/α7 Ratio” value [1] was 2.60. The Ki [1] was 0.2 ± 0.01 µM, the Ki [3] was 0.52 ± 0.01 µM and the logP [4] was 3.1.

With `C(=C1/CCCN=C1c1cccnc1)/c1ccc2c(c1)OCO2` [3-[3,4-(Methylenedioxy)benzylidene]-anabaseine] the pKa [2, 5] was 7.64 ± 0.04, the “% ionized” value [2] was 63.48% and the “Ki α4β2/α7 Ratio” value [1] was 3.04. For the same molecule, the Ki [1] was 0.23 ± 0.002 µM, the Ki [3] was 0.7 ± 0.07 µM and the logP [4] was 2.43.

With `COc1ccc2cc(/C=C3\CCCN=C3c3cccnc3)ccc2c1` [3-[(6-Methoxy-naphth-2-yl)-methylene]-anabaseine dihydrochloride] the pKa [2, 5] was 7.29 ± 0.12, the “% ionized” value [2] was 43.67% and the “Ki α4β2/α7 Ratio” value [1] was 1.62. It also gave a Ki [1] of 0.37 ± 0.03 µM, a Ki [3] of 0.6 ± 0.1 µM and a logP [4] of 2.65.

For `C(=C1/CCCN=C1c1cccnc1)/c1cc2ccccc2o1` [3-[(Benzofuran-2-yl)methylene]-anabaseine], the PKa [2, 5] was 9/2/04, the “% ionized” value [2] was 33.90% and the “Ki α4β2/α7 Ratio” value [1] was 39.5. It also gave a Ki [1] of 0.15 ± 0.003 µM, a Ki [3] of 5.92 ± 1.06 µM and a logP [4] of 3.86 ± 0.4.

For `c1cncc(C2=NCCCC2)c1` [Anabaseine, reference compound], the “RELATIVE A7/A4B2 SELECTIVITY” value [1] was 0.69.

With `COc1ccc(/C=C2\CCCN=C2c2cccnc2)c(OC)c1` [DMXBA (GTS-21), (E)-3-(2,4-dimethoxybenzylidene)-3,4,5,6-tetrahydro-2,3′-bipyridine, reference compound] the “RELATIVE A7/A4B2 SELECTIVITY” value [1] was 1.00.

For `COc1ccc(C=C2C(c3cccnc3)=NCCC2C)c(OC)c1` (stereo not drawn) [Least selective enantiomer of 4-Methyl-DMXBA, 3-(2,4-dimethoxybenzylidene)-(4-methyl)-3,4,5,6-tetrahydro-2,3′-bipyridine], the “RELATIVE A7/A4B2 SELECTIVITY” value ([1]; listed as 4-methyl-DMXBA enantiomer which had a longer retention time) was 1.28.

With `COc1ccc(C=C2CC(C)CN=C2c2cccnc2)c(OC)c1` (stereo not drawn) [Least selective enantiomer of 5-Methyl-DMXBA, 3-(2,4-dimethoxybenzylidene)-(5-methyl)-3,4,5,6-tetrahydro-2,3′-bipyridine] the “RELATIVE A7/A4B2 SELECTIVITY” value [1] was 1.03.

In the case of `COc1ccc(C=C2CCC(C)N=C2c2cccnc2)c(OC)c1` (stereo not drawn) [Least selective enantiomer of 6-Methyl-DMXBA, 3-(2,4-dimethoxybenzylidene)-(6-methyl)-3,4,5,6-tetrahydro-2,3′-bipyridine], the “RELATIVE A7/A4B2 SELECTIVITY” value [1] is reported as 2.93.

With `COc1ccc(C=C2C(c3cccnc3)=NCCC2C)c(OC)c1` (stereo not drawn) [Most selective enantiomer of 4-Methyl-DMXBA, 3-(2,4-dimethoxybenzylidene)-(4-methyl)-3,4,5,6-tetrahydro-2,3′-bipyridine] the “RELATIVE A7/A4B2 SELECTIVITY” value [1] was 8.34 and the “relative alpha7 nAChR (versus alpha4beta2) receptor binding selectivity, higher than that of the other enantiomer” value ([1]; rat brain nAChR, compared with the other enantiomer) was 6.5 fold.

In the case of `COc1ccc(C=C2CC(C)CN=C2c2cccnc2)c(OC)c1` (stereo not drawn) [Most selective enantiomer of 5-Methyl-DMXBA, 3-(2,4-dimethoxybenzylidene)-(5-methyl)-3,4,5,6-tetrahydro-2,3′-bipyridine], the “RELATIVE A7/A4B2 SELECTIVITY” value [1] is reported as 2.34.

With `COc1ccc(C=C2CCC(C)N=C2c2cccnc2)c(OC)c1` (stereo not drawn) [Most selective enantiomer of 6-Methyl-DMXBA, 3-(2,4-dimethoxybenzylidene)-(6-methyl)-3,4,5,6-tetrahydro-2,3′-bipyridine] the “RELATIVE A7/A4B2 SELECTIVITY” value [1] was 5.34.
